Experimental data published in PMC7002129, “The structure of Photosystem I acclimated to far-red light illuminates an ecologically important acclimation process in photosynthesis” (Science Advances, 2020).

Tests used:
[1] = target: Far-red light-acclimated Photosystem I (FRL-PSI) monomer from Fischerella thermalis PCC 7521 (Fischerella thermalis PCC 7521) (UniProt G6FW50); assay: cryo-EM structure; single-particle cryo-EM of trimeric FRL-PSI isolated from FRL-grown F. thermalis; plunge-frozen in 300 mM tricine pH 8.0, 50 mM NaCl; 178,666 particles, C3 symmetry, global resolution 3.19 Å
[2] = target: T1, FRL-PSI (far-red light-acclimated Photosystem I trimer) (Fischerella thermalis, UniProt G6FME9+G6FMF0); assay: cryo-EM structure ([…] Å); reversed-phase HPLC of extracted pigments; assay type: binding; conditions: presence shown by HPLC
T1 construct: gene psaA; native trimer from FRL-grown cells, DM-solubilised, sucrose gradients; 36 subunits (12 per monomer), ~1 MDa; with Photosystem I reaction center subunit II; Photosystem I reaction center subunit IV; Photosystem I reaction center subunit VIII; Photosystem I reaction center subunit XII; Photosystem I 4.8K protein

[3] = target: T1, FRL-PSI (far-red light-acclimated Photosystem I trimer); assay: reversed-phase HPLC of extracted pigments; assay type: binding; conditions: native complex; site not assigned (modelled as beta-carotene)

## Far-red light-acclimated Photosystem I (FRL-PSI) monomer from Fischerella thermalis PCC 7521 (from UniProt G6FW50 1-81; G6FQU3 1-72) (complex)
[1]
  stoichiometry N: 3

## CC1=C(/C=C/C(C)=C/C=C/C(C)=C/C=C/C=C(C)/C=C/C=C(C)/C=C/C2=C(C)CCCC2(C)C)C(C)(C)CCC1 [β-carotene]
[2]; not distinguishable from echinenone in the map
  cryo-EM structure (3.19 Å); reversed-phase HPLC of extracted pigments: all carotenoids are modeled as β-carotene (BCR)

## CC1=C(/C=C/C(C)=C/C=C/C(C)=C/C=C/C=C(C)/C=C/C=C(C)/C=C/C2=C(C)C(=O)CCC2(C)C)C(C)(C)CCC1 [echinenone]
[3]
  reversed-phase HPLC of extracted pigments: both complexes contain a mixture of β-carotene and echinenone

## C=Cc1c(C=O)c2[n]3c1=CC1=NC(=Cc4c(C)c5c([n]4[Mg]3)C(=C3N=C(C=2)C(C)C3CCC(=O)OCC=C(C)CCCC(C)CCCC(C)CCCC(C)C)C(C(=O)OC)C5=O)C(CC)=C1C (stereo not shown) [Chl f]
[2]; sites A20, A21, B30, B37 modelled as Chl f, assigned indirectly from environment
  cryo-EM structure (3.19 Å); reversed-phase HPLC of extracted pigments: sites of Chl A20, Chl A21, Chl B30, and Chl B37, accounting for four
